ChEMBL document CHEMBL1129765, “Azonia derivatives of the -carboline system. A new class of DNA intercalators” (Bioorg Med Chem Lett, 1996)

Tested on: HT-29
Assay: Compound was tested in vitro to inhibit 50% colon carcinoma HT-29 cell growth after 72 h
Type: functional, cell-based
Settings: Homo sapiens, HT-29, 72 h

## COc1cccc2c1C(=O)c1c(O)c3c(c(O)c1C2=O)C[C@@](O)(C(=O)CO)C[C@@H]3O[C@H]1C[C@H](N)[C@H](O)[C@H](C)O1 [DOXORUBICIN]
  EC50: 2500 nM
